Assay results: ChEMBL document CHEMBL1201862, “PubChem BioAssay data set” (2004)
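The compound was tested at five concentrations on cells cultured in 96-well plates, with a 48-hour exposure period. The concentration for 50% growth inhibition is given as GI50.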 Calls of active or inactive are those of the source. Cut-off read from the data, not from the text of the source: active = GI50 up to about 1.1 µM and inactive = higher.

Legend:
Assay in all cases: inhibition of tumour cell growth, NCI panel, 48 h
[1] = tested on: SR
[2] = tested on: SK-MEL-2
[3] = tested on: 786-0
[4] = tested on: COLO 205
[5] = tested on: EKVX
[6] = tested on: A549
[7] = tested on: MDA-MB-231
[8] = tested on: NCI-H460
[9] = tested on: DU-145
[10] = tested on: HL-60
[11] = tested on: NCI-H226
[12] = tested on: T47D
[13] = tested on: LOX IMVI
[14] = tested on: HT-29
[15] = tested on: HOP-62
[16] = tested on: HOP-92
[17] = tested on: RPMI-8226
[18] = tested on: UACC-62
[19] = tested on: MCF7
[20] = tested on: NCI/ADR-RES

Row | Compound | GI50 [1] | GI50 [2] | GI50 [3] | GI50 [4] | GI50 [5] | GI50 [6] | GI50 [7] | GI50 [8] | GI50 [9] | GI50 [10] | GI50 [11] | GI50 [12] | GI50 [13] | GI50 [14] | GI50 [15] | GI50 [16] | GI50 [17] | GI50 [18] | GI50 [19] | GI50 [20]
1 | N=C(N)/N=C(\N)Nc1ccc(C(=O)O)cc1 | > 100 µM (inactive) | > 100 µM (inactive) | > 100 µM (inactive) | > 100 µM (inactive) | > 100 µM (inactive) | > 100 µM (inactive) | > 100 µM (inactive) | > 100 µM (inactive) | > 100 µM (inactive) | > 100 µM (inactive) | > 100 µM (inactive) | > 100 µM (inactive) | > 100 µM (inactive) | > 100 µM (inactive) | > 100 µM (inactive) | > 100 µM (inactive) | > 100 µM (inactive) | > 100 µM (inactive) | > 100 µM (inactive) | > 100 µM (inactive)
2 | C=C([C@@]1(O)C[C@H]2[C@H](CCC2(OC)OC)[C@@H]2c3ccccc3O[C@@H]21)[Si](C)(C)C | 31.9 µM (inactive) | > 100 µM (inactive) | > 100 µM (inactive) | > 100 µM (inactive) | > 100 µM (inactive) | > 100 µM (inactive) | > 100 µM (inactive) | > 100 µM (inactive) | > 100 µM (inactive) | 25.5 µM (inactive) | > 100 µM (inactive) | 69.8 µM (inactive) | > 100 µM (inactive) | > 100 µM (inactive) | > 100 µM (inactive) | 1.78 µM (inactive) | 44.4 µM (inactive) | > 100 µM (inactive) | 93.1 µM (inactive) | > 100 µM (inactive)
3 | CC[C@]1(Cc2ccc(OC)c(OC)c2)C2CC(C(=O)OC)ON2O[C@H](OCc2ccccc2)[C@@H]1OC(C)=O (stereo not given in full) | > 100 µM (inactive) | > 100 µM (inactive) | > 100 µM (inactive) | > 100 µM (inactive) | > 100 µM (inactive) | > 100 µM (inactive) | > 100 µM (inactive) | > 100 µM (inactive) | > 100 µM (inactive) | 26.1 µM (inactive) | > 100 µM (inactive) | 47 µM (inactive) | > 100 µM (inactive) | > 100 µM (inactive) | > 100 µM (inactive) | 99.3 µM (inactive) | 98.6 µM (inactive) | > 100 µM (inactive) | > 100 µM (inactive) | > 100 µM (inactive)
4 | O=[N+]([O-])c1ccc(C2ON=C(c3ccccc3)N2C23CC4CC(CC(C4)C2)C3)cc1 (stereo not given) | > 10 µM (inactive) | > 10 µM (inactive) | > 10 µM (inactive) | > 10 µM (inactive) | > 10 µM (inactive) | > 10 µM (inactive) | > 10 µM (inactive) | > 10 µM (inactive) | > 10 µM (inactive) | > 10 µM (inactive) | > 10 µM (inactive) | > 10 µM (inactive) | > 10 µM (inactive) | > 10 µM (inactive) | > 10 µM (inactive) | > 10 µM (inactive) | > 10 µM (inactive) | > 10 µM (inactive) | > 10 µM (inactive) | > 10 µM (inactive)
5 | CCOC(=O)c1c(N2CCCC2)ncn(C)c1=S | > 100 µM (inactive) | > 100 µM (inactive) | > 100 µM (inactive) | > 100 µM (inactive) | > 100 µM (inactive) | > 100 µM (inactive) | > 100 µM (inactive) | > 100 µM (inactive) | > 100 µM (inactive) | > 100 µM (inactive) | > 100 µM (inactive) | > 100 µM (inactive) | > 100 µM (inactive) | > 100 µM (inactive) | > 100 µM (inactive) | 93.3 µM (inactive) | > 100 µM (inactive) | > 100 µM (inactive) | > 100 µM (inactive) | > 100 µM (inactive)
6 | C#C[C@]1(O)CC[C@H]2[C@@H]3CCc4cc(OC(=O)c5cccc6cc7ccccc7nc56)ccc4[C@H]3CC[C@@]21C | 5.52 µM (inactive) | 29.2 µM (inactive) | 27.5 µM (inactive) | 11 µM (inactive) | 12.9 µM (inactive) | 34 µM (inactive) | 25.6 µM (inactive) | 23 µM (inactive) | 23.5 µM (inactive) | 8.75 µM (inactive) | 33.2 µM (inactive) | 13.9 µM (inactive) | 20.5 µM (inactive) | 33.9 µM (inactive) | 38.2 µM (inactive) | 66.5 µM (inactive) | 22 µM (inactive) | 28.5 µM (inactive) | 25.2 µM (inactive) | 28.8 µM (inactive)
7 | O=S1(=O)c2ccccc2C(=NO)c2ccccc21 | 29.8 µM (inactive) | > 100 µM (inactive) | > 100 µM (inactive) | > 100 µM (inactive) | 35.3 µM (inactive) | > 100 µM (inactive) | > 100 µM (inactive) | > 100 µM (inactive) | > 100 µM (inactive) | 14.8 µM (inactive) | > 100 µM (inactive) | 80 µM (inactive) | 80.2 µM (inactive) | > 100 µM (inactive) | > 100 µM (inactive) | > 100 µM (inactive) | 59.4 µM (inactive) | > 100 µM (inactive) | > 100 µM (inactive) | 57.3 µM (inactive)
8 | Cc1ccc2cc3c(ccc4ccccc43)c3c2c1CC3 [3-METHYLCHOLANTHRENE] | > 100 µM (inactive) | > 100 µM (inactive) | > 100 µM (inactive) | > 100 µM (inactive) | 75.5 µM (inactive) | > 100 µM (inactive) | > 100 µM (inactive) | > 100 µM (inactive) | > 100 µM (inactive) | > 100 µM (inactive) | > 100 µM (inactive) | > 100 µM (inactive) | > 100 µM (inactive) | > 100 µM (inactive) | > 100 µM (inactive) | > 100 µM (inactive) | > 100 µM (inactive) | > 100 µM (inactive) | 0.159 µM (active) | > 100 µM (inactive)
